Reference: the NIST ThermoML archive (doi:10.1021/acs.jced.6b00577)

Conditions: Liquid, Frequency=8 MHz, Pulse-echo method

CCCC [butane]
Conditions	speed of sound [m/s]
199.99 K, 40128 kPa	1640.8
199.99 K, 45132 kPa	1662
199.99 K, 50136 kPa	1682.6
200 K, 1101.4 kPa	1447.8
200 K, 2102.1 kPa	1453.5
200 K, 3102.8 kPa	1459.2
200 K, 4103.5 kPa	1464.9
200 K, 5104.2 kPa	1470.5
200 K, 6105.1 kPa	1476
200 K, 7105.9 kPa	1481.5
200 K, 8106.6 kPa	1487
200 K, 9107.3 kPa	1492.4
200 K, 10108 kPa	1497.8
200 K, 12610 kPa	1510.9
200 K, 15112 kPa	1523.8
200 K, 17613 kPa	1536.5
200 K, 20115 kPa	1548.9
200 K, 25119 kPa	1573.1
200 K, 30123 kPa	1596.4
200 K, 35126 kPa	1619
200 K, 60143 kPa	1722.2
200 K, 70150 kPa	1759.8
200 K, 80157 kPa	1795.8
200 K, 90164 kPa	1830.2
200 K, 100171 kPa	1863.2
201 K, 250.62 kPa	1437.2
201 K, 600.55 kPa	1439.2
201 K, 1100.5 kPa	1442.1
201 K, 1101.5 kPa	1442.2
201 K, 2101.9 kPa	1448
201 K, 2102 kPa	1448
201 K, 3102.6 kPa	1453.7
201 K, 4103.4 kPa	1459.4
201 K, 5104 kPa	1465
220 K, 249.98 kPa	1330.5
220 K, 599.68 kPa	1332.8
220 K, 1100.7 kPa	1336.1
220 K, 1100.8 kPa	1336.1
220 K, 2101.6 kPa	1342.7
220 K, 2101.8 kPa	1342.7
220 K, 2102.1 kPa	1342.7
220 K, 2103.4 kPa	1342.6
220 K, 3102.3 kPa	1349.1
220 K, 3104.1 kPa	1349.1
220 K, 4103 kPa	1355.5
220 K, 4104.7 kPa	1355.5
220 K, 5103.6 kPa	1361.9
220 K, 6104.2 kPa	1368.2
220 K, 7104.9 kPa	1374.3
220 K, 8105.5 kPa	1380.5
220 K, 9106.2 kPa	1386.6
220 K, 10107 kPa	1392.6
220 K, 12609 kPa	1407.3
220 K, 15111 kPa	1421.8
220 K, 17612 kPa	1435.8
220 K, 20114 kPa	1449.6
220 K, 25118 kPa	1476.2
220 K, 30121 kPa	1501.8
220 K, 35125 kPa	1526.5
220 K, 40129 kPa	1550.3
220 K, 45133 kPa	1573.3
220 K, 50136 kPa	1595.6
220 K, 60144 kPa	1638.2
220 K, 70151 kPa	1678.5
220 K, 80158 kPa	1716.8
220 K, 90165 kPa	1753.2
220 K, 100172 kPa	1788.2
240 K, 252.21 kPa	1219.3
240 K, 602.15 kPa	1222
240 K, 1103 kPa	1225.8
240 K, 2103.5 kPa	1233.3
240 K, 2104.3 kPa	1233.3
240 K, 3104.1 kPa	1240.7
240 K, 3105.1 kPa	1240.7
240 K, 4104.7 kPa	1248
240 K, 4105.9 kPa	1248
240 K, 5105.3 kPa	1255.2
240 K, 5106.6 kPa	1255.2
240 K, 6107.3 kPa	1262.3
240 K, 7108.1 kPa	1269.3
240 K, 8108.8 kPa	1276.2
240 K, 9109.5 kPa	1283.1
240 K, 10110 kPa	1289.8
240 K, 12612 kPa	1306.4
240 K, 15113 kPa	1322.5
240 K, 17615 kPa	1338.1
240 K, 20116 kPa	1353.3
240 K, 25120 kPa	1382.7
240 K, 30123 kPa	1410.7
240 K, 35127 kPa	1437.6
240 K, 40130 kPa	1463.4
240 K, 45134 kPa	1488.2
240 K, 50138 kPa	1512.2
240 K, 60145 kPa	1557.8
240 K, 70152 kPa	1600.8
240 K, 80158 kPa	1641.4
240 K, 90165 kPa	1680
240 K, 100172 kPa	1716.9
259.99 K, 12610 kPa	1208.1
259.99 K, 80158 kPa	1569.8
259.99 K, 90165 kPa	1610.4
260 K, 251.45 kPa	1109.1
260 K, 601.45 kPa	1112.2
260 K, 1102.2 kPa	1116.6
260 K, 2102.8 kPa	1125.3
260 K, 2103.1 kPa	1125.3
260 K, 3103.4 kPa	1133.8
260 K, 3103.8 kPa	1133.8
260 K, 4104.1 kPa	1142.1
260 K, 4104.5 kPa	1142.2
260 K, 5104.7 kPa	1150.3
260 K, 5105.2 kPa	1150.4
260 K, 6105.9 kPa	1158.5
260 K, 7106.5 kPa	1166.4
260 K, 8107.2 kPa	1174.3
260 K, 9108 kPa	1182
260 K, 10108 kPa	1189.6
260 K, 15112 kPa	1226
260 K, 17613 kPa	1243.4
260 K, 20115 kPa	1260.3
260 K, 25119 kPa	1292.5
260 K, 30122 kPa	1323.2
260 K, 35126 kPa	1352.3
260 K, 40129 kPa	1380.2
260 K, 45133 kPa	1406.9
260 K, 50136 kPa	1432.6
260 K, 60144 kPa	1481.3
260 K, 70151 kPa	1526.8
260 K, 100172 kPa	1649
280 K, 250.96 kPa	999.47
280 K, 601 kPa	1003.1
280 K, 1101.7 kPa	1008.2
280 K, 2102.4 kPa	1018.3
280 K, 3103 kPa	1028.1
280 K, 3103.1 kPa	1028.2
280 K, 4103.6 kPa	1037.8
280 K, 4103.9 kPa	1037.8
280 K, 5104.1 kPa	1047.2
280 K, 5104.6 kPa	1047.2
280 K, 6105.4 kPa	1056.5
280 K, 7106.1 kPa	1065.6
280 K, 8106.8 kPa	1074.5
280 K, 9107.5 kPa	1083.2
280 K, 10108 kPa	1091.8
280 K, 12610 kPa	1112.6
280 K, 15112 kPa	1132.7
280 K, 17613 kPa	1151.9
280 K, 20115 kPa	1170.5
280 K, 25118 kPa	1206
280 K, 30122 kPa	1239.3
280 K, 35125 kPa	1270.9
280 K, 40128 kPa	1300.9
280 K, 45132 kPa	1329.5
280 K, 50135 kPa	1357
280 K, 60142 kPa	1408.7
280 K, 70149 kPa	1456.8
280 K, 80159 kPa	1502
280 K, 90166 kPa	1544.6
280 K, 100173 kPa	1584.9
299.99 K, 80158 kPa	1438.2
299.99 K, 90165 kPa	1482.7
299.99 K, 100172 kPa	1524.7
300 K, 599.94 kPa	893.83
300 K, 2102 kPa	911.89
300 K, 2104.2 kPa	911.91
300 K, 3102.8 kPa	923.46
300 K, 3104.9 kPa	923.48
300 K, 4103.6 kPa	934.71
300 K, 4105.7 kPa	934.73
300 K, 5104.4 kPa	945.67
300 K, 5105.9 kPa	945.68
300 K, 6106.5 kPa	956.35
300 K, 7107.2 kPa	966.78
300 K, 8107.8 kPa	976.95
300 K, 9108.4 kPa	986.91
300 K, 10109 kPa	996.68
300 K, 12610 kPa	1020.2
300 K, 15112 kPa	1042.6
300 K, 17614 kPa	1064
300 K, 20115 kPa	1084.5
300 K, 25118 kPa	1123.3
300 K, 30122 kPa	1159.6
300 K, 35125 kPa	1193.6
300 K, 40129 kPa	1225.8
300 K, 45132 kPa	1256.4
300 K, 50136 kPa	1285.6
300 K, 60143 kPa	1340.3
300 K, 70150 kPa	1390.9
300.01 K, 1100.4 kPa	899.93
320 K, 601.27 kPa	783.22
